Test system: cells from CLL and normal PBMC
Test: Tumor cell specificity: drug effect in CLL cells versus normal PBMC, FMCA
Assay type: cell-based, human
Details: PBMC n=4, CLL n=9; t-test, p<0.05; FIG. 2c
From the text: (§1) Cell culture. Patient tumor samples (98) and preparations (4) of normal peripheral blood mononuclear cells (PBMC), detailed in Table 1, were used to determine the activity of VLX50 and, for comparison, six other cytotoxic drugs chosen to represent different mechanistic classes.
(§2) The tumor samples were obtained by bone marrow/peripheral blood sampling, routine surgery or diagnostic biopsy. Leukemic cells and PBMCs were isolated by 1.077 g ml-1 Ficoll-Paque centrifugation (Larsson et al., 1992). Tumor tissue from solid tumor samples was minced into small pieces and tumor cells were isolated by collagenase dispersion followed by Percoll density gradient centrifugation (Csoka et al., 1994). The sampling of primary tumor cells was approved by the local ethics committee at Uppsala University Hospital. Cell viability was determined by trypan blue exclusion test and the proportion of tumor cells in the preparation was judged by inspection of May-Grunvald-Giemsa stained cytospin slides (FIG. 1a). All samples used in this study contained more than 70% tumor cells.
Fluorometric Microculture Cytotoxicity Assay. The Fluorometric Microculture Cytotoxicity Assay, FMCA, described in detail previously (Lindhagen et al., 2008), is based on measurement of fluorescence generated from hydrolysis of fluorescein diacetate (FDA) to fluorescein by cells with intact plasma membranes. Cells were seeded in the drug-prepared 384-well plates using the pipetting robot Precision 2000 (Bio-Tek Instruments Inc., Winooski, Vt.). The number of cells per well were 2500-5000. Two columns without drugs served as controls and one column with medium only served as blank. The plates were incubated for 72 h and then transferred to an integrated HTS SAIGAN Core System consisting of an ORCA robot (Beckman Coulter) with CO2 incubator (Cytomat 2C, Kendro, Sollentuna, Sweden), dispensor module (Multidrop 384, Titertek, Huntsville, Ala.), washer module (ELx 405, Bio-Tek Instruments Inc), delidding station, plate hotels, barcode reader (Beckman Coulter), liquid handler (Biomek 2000, Beckman Coulter) and a multipurpose reader (FLUOstar Optima, BMG Labtech GmbH, Offenburg, Germany) for automated FMCA. Quality criteria for a successful assay included a mean coefficient of variation of less than 30% in the control and a fluorescence signal in control wells of more than 5 times the blank.
Dose-response data were analyzed using calculated survival index values and the software program GraphPadPrism4 (GraphPad Software Inc., San Diego, Calif., USA). Data was processed using non-linear regression to a standard sigmoidal dose-response model to obtain IC50-values (inhibitory concentration 50%).
In FIG. 2a the response rates for VLX50 at 4 μM for the patient samples are listed according to diagnoses. […] Lung cancer, AML and CML had intermediate response rates. The relative effect of VLX50 and six standard cytotoxic drugs, in solid and hematological tumor samples, expressed as the S/H ratio, is shown in FIG. 2b. […] The results for the standard drugs are consistent with their main clinical use.

Compound | Activity in CLL compared with PBMC
COc1cccc2c1C(=O)c1c(O)c3c(c(O)c1C2=O)C[C@@](O)(C(=O)CO)C[C@@H]3O[C@H]1C[C@H](N)[C@H](O)[C@H](C)O1 [doxorubicin] | No difference
Nc1ccn([C@@H]2O[C@H](CO)[C@@H](O)[C@@H]2O)c(=O)n1 [cytarabin] | significantly higher activity in PBMC than in CLL cells
N[C@@H](Cc1ccc(N(CCCl)CCCl)cc1)C(=O)O [melphalan] | significantly higher activity in PBMC than in CLL cells
COc1cc([C@@H]2c3cc4c(cc3[C@@H](O[C@@H]3O[C@@H]5CO[C@@H](C)O[C@H]5[C@H](O)[C@H]3O)[C@H]3COC(=O)[C@H]23)OCO4)cc(OC)c1O [etoposide] | No difference
N.N.[Cl][Pt][Cl] [cisplatin, reference compound] | No difference
CC[C@]1(O)C[C@H]2CN(CCc3c([nH]c4ccccc34)[C@@](C(=O)OC)(c3cc4c(cc3OC)N(C=O)[C@H]3[C@@](O)(C(=O)OC)[C@H](OC(C)=O)[C@]5(CC)C=CCN6CC[C@]43[C@@H]65)C2)C1 [vincristine] | significantly more active in CLL than in PBMC

Test system: solid and hematological patient tumor samples
Test: Relative effect on solid and hematological tumor samples (S/H ratio), FMCA
Assay type: cell-based, human
Details: n=98 patient samples; FIG. 2b
From the text: as §1
as §2, with “The sampling of primary tumor cells was approved by the local ethics committee at Uppsala University Hospital.” left out, “All samples used in this study contained more than 70% tumor cells.” left out
Fluorometric Microculture Cytotoxicity Assay. The Fluorometric Microculture Cytotoxicity Assay, FMCA, described in detail previously (Lindhagen et al., 2008), is based on measurement of fluorescence generated from hydrolysis of fluorescein diacetate (FDA) to fluorescein by cells with intact plasma membranes. […] Quality criteria for a successful assay included a mean coefficient of variation of less than 30% in the control and a fluorescence signal in control wells of more than 5 times the blank. […]

Compound | S/H ratio (ratio between total response rates for solid and hematological samples)
N.N.[Cl][Pt][Cl] [cisplatin, reference compound] | 1.2

Reference: patent publication US20120309798A1, “Tumour Treatment Agents and Method” (Vivolux AB, priority 2009, published 2012)
